Measurements: patent US9119398B2, “Plant growth regulating compounds” (Syngenta Participations AG, priority 2012, dated 2015)

Tests used:
[1] = tested on: Orobanche cumana Wallr. seeds; assay: Germination of preconditioned Orobanche cumana seeds on glass fiber filter paper in petri dishes; format: in vivo; settings: mean, N = 5 × 100 seeds, seed lot IN153
Procedure: The effect of compounds of Formula (I) on germination of Orobanche cumana Wallr. seeds was evaluated on glass fiber filter paper (GFFP) in petri dishes. Seeds were preconditioned at moisture and suitable temperature to become responsive to the specific chemical germination stimulants.
Test compounds were dissolved in DMSO (10 000 mg l^−1) and stored at room temperature in a desiccators with desiccants. The stock solutions were dissolved with deionised water to the appropriate final test concentration.
Seeds of O. cumana race ‘F’ (IN153) were collected from a sunflower field in Manzanilla (Seville, Spain) in 2006 and stored at room temperature. To separate seeds from heavy organic debris, a modified sucrose floatation technique as described by Hartman & Tanimonure (Plant Disease (1991), 75, p. 494) was applied. Seeds were filled into a separation funnel and stirred in water. When seeds floated to the surface, the water fraction containing heavy debris was discarded. Seeds were re-suspended in 2.5M sucrose solution (specific gravity of 1.20) and heavy debris was allowed to settle down for 60 min After removing debris, seeds were disinfected in 1% sodium hypochlorite solution and 0.025% (v/v) Tween 20 for 2 min. The seeds were decanted onto two layers of cheesecloth, rinsed with sterile deionised water and re-suspended in sterile deionised water. Two ml of the seed suspension containing approximately 150-400 seeds were spread evenly on two layers of sterile glass fiber filter paper disc ([…]) in Petri dishes (Ø9 cm). After wetting the discs with 3 ml sterile deionised water, petri dishes were sealed with parafilm. Seeds were incubated for 10 days at 20° C. in the dark for seed conditioning. The upper disc with conditioned seeds was briefly dried, transferred to a petri dish lined with a dry GFFP disc, and wetted with 6 ml of the appropriate test solution. The compounds of Formula (I) were tested at concentrations of 0.001, 0.01, 0.1, or 1 mg l^−. The strigolactone analogue GR24 was included as positive control and 0.01% DMSO as negative control. All treatments were tested in five replicates. Seeds were re-incubated at 20° C. in the dark and examined for germination 10 days later. The radicles of germinated seeds were stained for 5 min with blue ink (MIGROS, Switzerland) in 5% acetic acid according to Long et al. (Seed Science Research (2008), 18, p. 125). After staining, seeds were photographed using a camera stand mounted with a digital SLR camera (Canon EOS 5D). Germination of 100 seeds per replicate was evaluated on digital images. Seeds were considered germinated when the radicle protruded from the seed coat.

[2] = tested on: Brassica oleracea cv Botrytis (temperate cauliflower) seeds; assay: Paper germination test, temperate cauliflower seeds, 10° C. in the light; format: in vivo; settings: 25 μM, sets A and B separate experiments
Procedure: The effect of compounds of Formula (I) on the germination of Brassica oleracea cv Botrytis or common cauliflower was tested on two types of cauliflowers: temperate types and tropical types. These two types were chosen because they display different sensitivities to the light conditions and temperature during germination. Germination of a sensitive temperate type is inhibited by light at 10° C. while for the tropical types germination at 20° is stimulated by the presence of light.
The temperate seed batches tested are part of commercially produced seed batches of various varieties which are known to be sensitive to light at 10° C. These seeds were harvested and cleaned according standard commercial procedures. Ready seed batches were used (Ready indicates the processing level of these seeds: they have been cleaned and sized but received no other treatments). The tropical seed batches tested are part of seed batches produced as basic seed (for maintenance of the parental line) and were processed accordingly.
Germination was assessed using the standard paper germination test for Brassica: Fifty seeds were placed on blue germination paper, which was moistened with the appropriate solutions, in closed oblong germination boxes. Each condition was tested in duplo. Germination boxes were placed in controlled germination cabinets with the appropriate temperature and light conditions. Germination of seeds was counted at regular intervals. Seeds were considered to be germinated when the radical had protruded the testa and endosperm (radical size approximately 1 mm)
Test compounds were dissolved in DMSO at a concentration of 50 mM and stored at −20° C. The strigolactone analogue GR24 (commercially available as a racemic mixture of 2 diastereoisomers, referred to as “synthetic strigolactone GR-24” and first prepared by Johnson A. W. & all, Journal of the Chemical Society, Perkin Transactions 1, 1981, page 1734-1743) was included as positive control. Germination solutions were prepared by diluting the stock solutions with demineralized water till 25 μM. As control solutions demineralized water and a 0.05% v/v DMSO solution were used.

[3] = Table B1, concentration 0.001 mg 1^−1, DMSO control 0.4% germination
[4] = Table B1, concentration 0.1 mg 1^−1, DMSO control 0.4% germination
[5] = Table B1, concentration 1 mg 1^−1, DMSO control 0.4% germination
[6] = Table B3, concentration 0.001 mg 1^−1, DMSO control 0% germination
[7] = Table B3, concentration 0.01 mg 1^−1, DMSO control 0% germination
[8] = Table B3, concentration 0.1 mg 1^−1, DMSO control 0% germination
[9] = temperate cauliflower Spacestar seed batch 11B313 (cold-sensitive)
[10] = temperate cauliflower Spacestar seed batch 11B314 (not cold sensitive)
[11] = Table B2, concentration 0.01 mg 1^−1, DMSO control 2.4% germination
[12] = Table B2, concentration 0.1 mg 1^−1, DMSO control 2.4% germination
[13] = Table B2, concentration 1 mg 1^−1, DMSO control 2.4% germination

## CC1=CC(O/C=C2\CC(C)N(C(=O)OC(C)(C)C)C2=O)OC1=O (centres unmarked) [Ib-6, tert-butyl (3E)-5-methyl-3-[(4-methyl-5-oxo-2H-furan-2-yl)oxymethylene]-2-oxo-pyrrolidine-1-carboxylate]
[1]; [3]
  Germination (%): 0.4%
[1]; [4]
  Germination (%): 1.8%
[1]; [5]
  Germination (%): 5.6%

## CC1=CC(O/C=C2\CCC(c3ccccc3)N(C(=O)OC(C)(C)C)C2=O)OC1=O (centres unmarked) [Ib-12, tert-butyl (3E)-3-[(4-methyl-5-oxo-2H-furan-2-yl)oxymethylene]-2-oxo-6-phenyl-piperidine-1-carboxylate]
[1]; [6]
  Germination (%): 91%
[1]; [7]
  Germination (%): 89%
[1]; [8]
  Germination (%): 90.2%

## CC1=CC(O/C=C2\CCCCNC2=O)OC1=O (centres unmarked) [Ia-13, (3E)-3-[(4-methyl-5-oxo-2H-furan-2-yl)oxymethylene]azepan-2-one]
[1]; Table B5, concentration 0.01 mg 1^−1 (second column), DMSO control 1.4% germination
  Germination (%): 34.2%
[1]; Table B5, concentration 0.01 mg 1^−1 (third column), DMSO control 1.4% germination
  Germination (%): 25.6%
[1]; Table B5, concentration 1 mg 1^−1, DMSO control 1.4% germination
  Germination (%): 70%
[2]; [9]
  Gmax (%), total germination as percentage of sown seeds: 42.3%
  stimulation (%), extra germination compared to the DMSO treatment, as percentage of the germination in the DMSO treatment: −21.8%
[2]; [10]
  Gmax (%), total germination as percentage of sown seeds: 92.5%
  stimulation (%), extra germination compared to the DMSO treatment, as percentage of the germination in the DMSO treatment: 7.6%

## CC1=C[C@H](O/C=C2/C(=O)N[C@@H]3C=CC[C@H]23)OC1=O [Ia-1′, (3E,3aR,6aR)-3-[[(2R)-4-methyl-5-oxo-2H-furan-2-yl]oxymethylene]-1,3a,4,6a-tetrahydrocyclopenta[b]pyrrol-2-one]
[1]; Table B6, concentration 0.001 mg 1^−1, DMSO control 2.4% germination
  Germination (%): 68.0%
[1]; Table B6, concentration 0.1 mg 1^−1, DMSO control 2.4% germination
  Germination (%): 55.3%
[1]; Table B6, concentration 1 mg 1^−1, DMSO control 2.4% germination
  Germination (%): 54.8%

## CC1=CC(O/C=C2\CCN(c3ccccc3)C2=O)OC1=O (centres unmarked) [I-3, (3E)-3-[(4-methyl-5-oxo-2H-furan-2-yl)oxymethylene]-1-phenyl-pyrrolidin-2-one]
[1]; [11]
  Germination (%): 0%
[1]; [12]
  Germination (%): 1.6%
[1]; [13]
  Germination (%): 19.2%

## CC1=CC(O/C=C2/C(=O)N(C(=O)OC(C)(C)C)C3CCCC23)OC1=O (centres unmarked) [Ib-2, tert-butyl (3E)-3-[(4-methyl-5-oxo-2H-furan-2-yl)oxymethylene]-2-oxo-4,5,6,6a-tetrahydro-3aH-cyclopenta[b]pyrrole-1-carboxylate]
[1]; [3]
  Germination (%): 0%
[1]; [4]
  Germination (%): 18.2%
[1]; [5]
  Germination (%): 54.8%

## CC1=CC(O/C=C2/C(=O)NC3CCCC23)OC1=O (centres unmarked) [Ia-2, (3E)-3-[(4-methyl-5-oxo-2H-furan-2-yl)oxymethylene]-1,3a,4,5,6,6a-hexahydrocyclopenta[b]pyrrol-2-one]
[1]; [11]
  Germination (%): 75.4%
[1]; [12]
  Germination (%): 65.4%
[1]; [13]
  Germination (%): 83.4%

## CC1=CC(O/C=C2\CC(=O)N(C)C2=O)OC1=O (centres unmarked) [I-7, (3E)-1-methyl-3-[(4-methyl-5-oxo-2H-furan-2-yl)oxymethylene]pyrrolidine-2,5-dione]
[1]; [11]
  Germination (%): 1%
[1]; [12]
  Germination (%): 1.4%
[1]; [13]
  Germination (%): 17.2%

## CC1=CC(O/C=C2\CCC(c3ccccc3)NC2=O)OC1=O (centres unmarked) [Ia-12, (3E)-3-[(4-methyl-5-oxo-2H-furan-2-yl)oxymethylene]-6-phenyl-piperidin-2-one]
[1]; [6]
  Germination (%): 93.3%
[1]; [7]
  Germination (%): 86.8%
[1]; [8]
  Germination (%): 92.4%

## CC1=CC(O/C=C2\CCCN(c3ccccc3)C2=O)OC1=O (centres unmarked) [I-5, (3E)-3-[(4-methyl-5-oxo-2H-furan-2-yl)oxymethylene]-1-phenyl-piperidin-2-one]
[1]; [11]
  Germination (%): 1%
[1]; [12]
  Germination (%): 0%
[1]; [13]
  Germination (%): 42.2%

## CC1=CC(O/C=C2/C(=O)N(C(=O)OC(C)(C)C)C3C=CCC23)OC1=O (centres unmarked) [Ib-1, tert-butyl (3E)-3-[(4-methyl-5-oxo-2H-furan-2-yl)oxymethylene]-2-oxo-4,6a-dihydro-3aH-cyclopenta[b]pyrrole-1-carboxylate]
[1]; [3]
  Germination (%): 0%
[1]; [4]
  Germination (%): 25.8%
[1]; [5]
  Germination (%): 92.6%

## CC1=CC(O/C=C2\CCCCN(C(=O)OC(C)(C)C)C2=O)OC1=O (centres unmarked) [Ib-13, tert-butyl (3E)-3-[(4-methyl-5-oxo-2H-furan-2-yl)oxymethylene]-2-oxo-azepane-1-carboxylate]
[1]; Concentration 0.01 mg l^-1, 10 days at 20° C. in the dark
  Germination (%): 48%
[1]; Concentration 0.01 mg l^-1 as printed, 10 days at 20° C. in the dark
  Germination (%): 83%
[1]; Concentration 1 mg l^-1, 10 days at 20° C. in the dark
  Germination (%): 90.8%

## CC1=CC(O/C=C2\CCN(C(=O)OC(C)(C)C)C2=O)OC1=O (centres unmarked) [Ib-8, tert-butyl (3E)-3-[(4-methyl-5-oxo-2H-furan-2-yl)oxymethylene]-2-oxo-pyrrolidine-1-carboxylate]
[1]; [11]
  Germination (%): 0.2%
[1]; [12]
  Germination (%): 2.8%
[1]; [13]
  Germination (%): 1.4%

## CC1=CC(O/C=C2\CC(c3ccccc3)N(C(=O)OC(C)(C)C)C2=O)OC1=O (centres unmarked) [Ib-10, tert-butyl (3E)-3-[(4-methyl-5-oxo-2H-furan-2-yl)oxymethylene]-2-oxo-5-phenyl-pyrrolidine-1-carboxylate]
[1]; [6]
  Germination (%): 72.8%
[1]; [7]
  Germination (%): 72.4%
[1]; [8]
  Germination (%): 71.8%

## CC1=CC(O/C=C2\CCNC2=O)OC1=O (centres unmarked) [Ia-8, (3E)-3-[(4-methyl-5-oxo-2H-furan-2-yl)oxymethylene]pyrrolidin-2-one]
[2]; [9]
  Gmax (%), total germination as percentage of sown seeds: 77.0%
  stimulation (%), extra germination compared to the DMSO treatment, as percentage of the germination in the DMSO treatment: 42.6%
[2]; [10]
  Gmax (%), total germination as percentage of sown seeds: 93.0%
  stimulation (%), extra germination compared to the DMSO treatment, as percentage of the germination in the DMSO treatment: 8.1%

## CC1=CC(O/C=C2\CC(C)N(c3ccccc3)C2=O)OC1=O (centres unmarked) [I-4, (3E)-5-methyl-3-[(4-methyl-5-oxo-2H-furan-2-yl)oxymethylene]-1-phenyl-pyrrolidin-2-one]
[1]; [11]
  Germination (%): 0.6%
[1]; [12]
  Germination (%): 1%
[1]; [13]
  Germination (%): 18.2%
